Source: the NIST ThermoML archive (doi:10.1016/j.jct.2019.02.011)
± gives the expanded uncertainty stated by the source.

Assay: xn = mol fraction of the nth substance listed
Conditions: Liquid, Vibrating tube method

COC(=O)OC [dimethyl carbonate] + CCO
mass density [kg/m3]
Conditions	100 kPa	5000 kPa	10000 kPa	15000 kPa	20000 kPa	25000 kPa	30000 kPa	35000 kPa	40000 kPa
288.15 K, x1 = 0.0252	804.2 ± 1.4	808 ± 1.4	812.06 ± 1.4	815.89 ± 1.4	819.61 ± 1.4	822.92 ± 1.4	826.21 ± 1.4	829.16 ± 1.4	832.33 ± 1.4
288.15 K, x1 = 0.0506	813.67 ± 1.4	817.57 ± 1.4	821.64 ± 1.4	825.53 ± 1.4	829.25 ± 1.4	832.61 ± 1.4	835.95 ± 1.4	838.9 ± 1.4	842.19 ± 1.4
288.15 K, x1 = 0.0757	823.01 ± 1.4	826.96 ± 1.4	831.04 ± 1.4	834.98 ± 1.4	838.69 ± 1.4	842.06 ± 1.4	845.41 ± 1.4	848.42 ± 1.4	851.7 ± 1.4
288.15 K, x1 = 0.1003	831.96 ± 1.4	835.91 ± 1.4	839.99 ± 1.4	843.94 ± 1.4	847.7 ± 1.4	851.08 ± 1.4	854.48 ± 1.4	857.54 ± 1.4	860.78 ± 1.4
288.15 K, x1 = 0.1508	849.93 ± 1.4	853.94 ± 1.4	858.08 ± 1.4	862.04 ± 1.4	865.84 ± 1.4	869.28 ± 1.4	872.69 ± 1.4	875.76 ± 1.4	879.06 ± 1.4
288.15 K, x1 = 0.2	866.84 ± 1.4	870.91 ± 1.4	875.1 ± 1.4	879.08 ± 1.4	882.88 ± 1.4	886.33 ± 1.4	889.8 ± 1.4	892.93 ± 1.4	896.24 ± 1.4
288.15 K, x1 = 0.2547	885.11 ± 1.4	889.19 ± 1.4	893.38 ± 1.4	897.43 ± 1.4	901.27 ± 1.4	904.73 ± 1.4	908.21 ± 1.4	911.35 ± 1.4	914.67 ± 1.4
288.15 K, x1 = 0.3002	899.9 ± 1.4	903.99 ± 1.4	908.19 ± 1.4	912.25 ± 1.4	916.09 ± 1.4	919.56 ± 1.4	923.05 ± 1.4	926.24 ± 1.4	929.57 ± 1.5
288.15 K, x1 = 0.3498	915.51 ± 1.4	919.65 ± 1.4	923.86 ± 1.4	927.88 ± 1.4	931.71 ± 1.4	935.24 ± 1.5	938.74 ± 1.5	941.95 ± 1.5	945.28 ± 1.5
288.15 K, x1 = 0.4	930.78 ± 1.4	934.94 ± 1.4	939.15 ± 1.4	943.23 ± 1.5	947.06 ± 1.5	950.6 ± 1.5	954.16 ± 1.5	957.37 ± 1.5	960.71 ± 1.5
288.15 K, x1 = 0.449	945.14 ± 1.5	949.35 ± 1.5	953.57 ± 1.5	957.66 ± 1.5	961.48 ± 1.5	965.03 ± 1.5	968.6 ± 1.5	971.87 ± 1.5	975.22 ± 1.5
288.15 K, x1 = 0.4996	959.51 ± 1.5	963.73 ± 1.5	967.96 ± 1.5	972.06 ± 1.5	975.93 ± 1.5	979.49 ± 1.5	983.06 ± 1.5	986.34 ± 1.5	989.7 ± 1.5
288.15 K, x1 = 0.5507	973.56 ± 1.5	977.78 ± 1.5	982.01 ± 1.5	986.13 ± 1.5	989.99 ± 1.5	993.56 ± 1.5	997.14 ± 1.5	1000.43 ± 1.5	1003.8 ± 1.5
288.15 K, x1 = 0.6005	986.73 ± 1.5	990.95 ± 1.5	995.19 ± 1.5	999.32 ± 1.5	1003.17 ± 1.5	1006.8 ± 1.5	1010.39 ± 1.5	1013.69 ± 1.5	1017.06 ± 1.5
288.15 K, x1 = 0.6455	998.17 ± 1.5	1002.45 ± 1.5	1006.64 ± 1.5	1010.83 ± 1.5	1014.68 ± 1.5	1018.32 ± 1.5	1021.92 ± 1.5	1025.22 ± 1.5	1028.6 ± 1.5
288.15 K, x1 = 0.6931	1009.92 ± 1.5	1014.21 ± 1.5	1018.41 ± 1.5	1022.55 ± 1.5	1026.4 ± 1.5	1030.05 ± 1.5	1033.65 ± 1.5	1037.01 ± 1.5	1040.4 ± 1.5
288.15 K, x1 = 0.7502	1023.43 ± 1.5	1027.72 ± 1.5	1031.92 ± 1.5	1036.08 ± 1.5	1039.92 ± 1.5	1043.58 ± 1.5	1047.24 ± 1.5	1050.61 ± 1.5	1054 ± 1.6
288.15 K, x1 = 0.8009	1035 ± 1.5	1039.3 ± 1.5	1043.51 ± 1.5	1047.68 ± 1.5	1051.52 ± 1.5	1055.18 ± 1.6	1058.85 ± 1.6	1062.22 ± 1.6	1065.62 ± 1.6
288.15 K, x1 = 0.8505	1046 ± 1.5	1050.3 ± 1.5	1054.51 ± 1.5	1058.68 ± 1.6	1062.52 ± 1.6	1066.19 ± 1.6	1069.82 ± 1.6	1073.25 ± 1.6	1076.6 ± 1.6
288.15 K, x1 = 0.9008	1056.7 ± 1.5	1061.01 ± 1.6	1065.22 ± 1.6	1069.4 ± 1.6	1073.24 ± 1.6	1076.92 ± 1.6	1080.55 ± 1.6	1083.98 ± 1.6	1087.34 ± 1.6
288.15 K, x1 = 0.9255	1061.81 ± 1.6	1066.14 ± 1.6	1070.35 ± 1.6	1074.54 ± 1.6	1078.38 ± 1.6	1082.06 ± 1.6	1085.69 ± 1.6	1089.13 ± 1.6	1092.49 ± 1.6
288.15 K, x1 = 0.9477	1066.36 ± 1.6	1070.68 ± 1.6	1074.89 ± 1.6	1079.08 ± 1.6	1082.92 ± 1.6	1086.6 ± 1.6	1090.23 ± 1.6	1093.68 ± 1.6	1097.04 ± 1.6
288.15 K, x1 = 0.9735	1071.55 ± 1.6	1075.89 ± 1.6	1080.08 ± 1.6	1084.28 ± 1.6	1088.11 ± 1.6	1091.79 ± 1.6	1095.43 ± 1.6	1098.88 ± 1.6	1102.23 ± 1.6
288.15 K, x1 = 1	1076.83 ± 0.57	1081.15 ± 0.57	1085.32 ± 0.58	1089.52 ± 0.6	1093.35 ± 0.61	1096.99 ± 0.62	1100.63 ± 0.63	1104.08 ± 0.65	1107.4 ± 0.67
293.15 K, x1 = 0.0252	799.52 ± 1.4	803.53 ± 1.4	807.63 ± 1.4	–	–	–	–	–	–
293.15 K, x1 = 0.0506	808.93 ± 1.4	813.04 ± 1.4	817.2 ± 1.4	–	–	–	–	–	–
293.15 K, x1 = 0.0757	818.21 ± 1.4	822.32 ± 1.4	826.48 ± 1.4	–	–	–	–	–	–
293.15 K, x1 = 0.1003	827.05 ± 1.4	831.21 ± 1.4	835.37 ± 1.4	–	–	–	–	–	–
293.15 K, x1 = 0.1508	844.9 ± 1.4	849.11 ± 1.4	853.32 ± 1.4	–	–	–	–	–	–
293.15 K, x1 = 0.2	861.69 ± 1.4	865.96 ± 1.4	870.22 ± 1.4	–	–	–	–	–	–
293.15 K, x1 = 0.2547	879.83 ± 1.4	884.11 ± 1.4	–	–	–	–	–	–	–
293.15 K, x1 = 0.3002	894.46 ± 1.4	898.79 ± 1.4	–	–	–	–	–	–	–
293.15 K, x1 = 0.3498	909.95 ± 1.4	914.32 ± 1.4	–	–	–	–	–	–	–
293.15 K, x1 = 0.4	925.11 ± 1.4	929.49 ± 1.4	–	–	–	–	–	–	–
293.15 K, x1 = 0.449	939.35 ± 1.4	943.78 ± 1.5	–	–	–	–	–	–	–
293.15 K, x1 = 0.4996	953.6 ± 1.5	958.04 ± 1.5	–	–	–	–	–	–	–
293.15 K, x1 = 0.5507	967.53 ± 1.5	971.96 ± 1.5	–	–	–	–	–	–	–
293.15 K, x1 = 0.6005	980.58 ± 1.5	985.07 ± 1.5	–	–	–	–	–	–	–
293.15 K, x1 = 0.6455	991.96 ± 1.5	996.45 ± 1.5	–	–	–	–	–	–	–
293.15 K, x1 = 0.6931	1003.6 ± 1.5	1008.14 ± 1.5	–	–	–	–	–	–	–
293.15 K, x1 = 0.7502	1017.03 ± 1.5	1021.58 ± 1.5	–	–	–	–	–	–	–
293.15 K, x1 = 0.8009	1028.54 ± 1.5	1033.09 ± 1.5	–	–	–	–	–	–	–
293.15 K, x1 = 0.8505	1039.42 ± 1.5	1043.97 ± 1.5	–	–	–	–	–	–	–
293.15 K, x1 = 0.9008	1050.05 ± 1.5	1054.61 ± 1.5	–	–	–	–	–	–	–
293.15 K, x1 = 0.9255	1055.15 ± 1.5	1059.71 ± 1.6	–	–	–	–	–	–	–
293.15 K, x1 = 0.9477	1059.65 ± 1.6	1064.21 ± 1.6	–	–	–	–	–	–	–
293.15 K, x1 = 0.9735	1064.83 ± 1.6	1069.39 ± 1.6	–	–	–	–	–	–	–
293.15 K, x1 = 1	1070.06 ± 0.56	1074.62 ± 0.57	–	–	–	–	–	–	–
